Laboratory results from patent publication US4826982A, “Quinolonecarboxylic acid derivatives” (Kyorin Pharmaceutical Co., Ltd., priority 1985, dated 1989).
Values after ≈ are worked out from the molar mass of the structure shown. Like-named read-outs stand apart in the source and are kept apart here.

Key:
[1] = test system: Clostridium perfringens KYA 13123; test: microbe, parasite or virus in culture; conditions: KYA13123
[2] = test system: Eubacterium lentum GAI 5242; test: microbe, parasite or virus in culture; conditions: Eggerthella lenta, GAI5242
[3] = test system: Peptococcus magnus KY 017; test: microbe, parasite or virus in culture; conditions: Finegoldia magna, KY017
Pst. micros UPI 5464-1 = test: Antibacterial spectrum, MIC; conditions: Parvimonas micra, UPI54641
[4] = test system: Peptostreptococcus anaerobius KYA 27337; test: Antibacterial spectrum, MIC; assay type: cell-based
C. ramosum = test: Antibacterial spectrum, MIC; assay type: cell-based; conditions: Thomasclavelia ramosa; 10^6 cells/ml; Gram +; standard strain; read-out: MIC
[5] = test system: Morganella morganii IID 602; test: Antibacterial spectrum, MIC; assay type: cell-based; conditions: IID602
S. pyogenes IID 692 = test: microbe, parasite or virus in culture; conditions: Streptococcus pyogenes, IID692
[6] = test system: Propionibacterium acens 11828; test: Antibacterial spectrum, MIC; assay type: cell-based
[7] = test system: B. thetaiotaomicron (0661); test: Antibacterial spectrum, MIC; assay type: cell-based; conditions: Bacteroides thetaiotaomicron; 10^6 cells/ml; Gram -; standard strain; read-out: MIC
[8] = test system: Veillonella parvula KYA 10790; test: Antibacterial spectrum, MIC; conditions: KYA10790
[9] = test system: Bacillus subtilis PCI 219; test: Antibacterial spectrum, MIC by method recommended by Japan Society of Chemotherapy; assay type: cell-based; conditions: PCI219, 10^6 cells/ml, Gram +, standard strain
From the text: (§1) In vitro antibacterial activity (standard strains)
(§2) Organism (10^6 cells/ml)

[10] = test system: Fusobacterium necrophorum S-45; test: Antibacterial spectrum, MIC; assay type: cell-based; conditions: S45, 10^6 cells/ml, Gram -, standard strain
From the text: as §1, §2

P. mirabilis IID 994 = test: Antibacterial spectrum, MIC; assay type: cell-based; conditions: Proteus mirabilis, IID994; 10^6 cells/ml; Gram -; standard strain
From the text: as §1, §2

[11] = test system: Alcaligenes faecalis 0114002; test: Antibacterial spectrum, MIC; assay type: cell-based; conditions: 10^6 cells/ml, Gram -, standard strain
From the text: as §1, §2

[12] = test system: Citrobacter freundii IID 976; test: Antibacterial spectrum, MIC; assay type: cell-based; conditions: IID976, 10^6 cells/ml, Gram -, standard strain
From the text: as §1, §2

S. epidermidis IID 866 = test: Antibacterial spectrum, MIC; assay type: cell-based; conditions: Staphylococcus epidermidis, IID866; 10^6 cells/ml; Gram +; standard strain
From the text: as §1, §2

[13] = test system: Escherichia coli NIHJ JC-2; test: Antibacterial spectrum, MIC; assay type: cell-based; conditions: NIHJJC2, 10^6 cells/ml, Gram -, standard strain
From the text: as §1, §2

[14] = test system: Streptococcus pyogenes (S-8); test: Antibacterial spectrum, MIC; assay type: cell-based; conditions: 10^6 cells/ml, Gram +, standard strain
From the text: as §1, §2

Shigella sonnei IID 969 = test: Antibacterial spectrum, MIC; assay type: cell-based; conditions: IID969, 10^6 cells/ml, Gram -, standard strain
From the text: as §1, §2

B. fragilis 0558 = test: Antibacterial spectrum, MIC; assay type: cell-based; conditions: Bacteroides fragilis, 10^6 cells/ml, Gram -, standard strain
From the text: as §1, §2

[15] = test system: Klebsiella pneumoniae KY(GN)6445; test: Antibacterial spectrum, MIC; assay type: cell-based; conditions: 10^6 cells/ml, Gram -, standard strain
From the text: as §1, §2

E. coli ATCC l0536 = test: Antibacterial spectrum, MIC; assay type: cell-based; conditions: Escherichia coli, ATCCL0536
From the text: as §1, §2

[16] = test system: S. aureus IID 670 (Terajima); test: Antibacterial spectrum, MIC; assay type: cell-based; conditions: Staphylococcus aureus, IID670; 10^6 cells/ml; Gram +; standard strain
From the text: as §1, §2

[17] = test system: Enterobacter cloacae IID 977; test: Antibacterial spectrum, MIC; assay type: cell-based; conditions: IID977, 10^6 cells/ml, Gram -, standard strain
From the text: as §1, §2

[18] = test system: Proteus vulgaris IFO 3167; test: Antibacterial spectrum, MIC; assay type: cell-based; conditions: IFO3167, 10^6 cells/ml, Gram -, standard strain
From the text: as §1, §2

B. fragilis 25285 = test: Antibacterial spectrum, MIC; assay type: cell-based; conditions: Bacteroides fragilis, 10^6 cells/ml, Gram -, standard strain
From the text: as §1, §2

K. pneumoniae 1-220S = test: Antibacterial spectrum, MIC; assay type: cell-based; conditions: Klebsiella pneumoniae, 1220S; 10^6 cells/ml; Gram -; standard strain
From the text: as §1, §2

E. faecalis IID 682 = test: Antibacterial spectrum, MIC; assay type: cell-based; conditions: Enterococcus faecalis, IID682; 10^6 cells/ml; Gram +; standard strain
From the text: as §1, §2

[19] = test system: Serratia marcescens IID 618; test: Antibacterial spectrum, MIC; assay type: cell-based; conditions: IID618, 10^6 cells/ml, Gram -, standard strain
From the text: as §1, §2

[20] = test system: Staphylococcus aureus 209 P; test: Antibacterial spectrum, MIC; assay type: cell-based; conditions: 10^6 cells/ml, Gram +, standard strain
From the text: as §1, §2

B. distasonis 8503 = test: Antibacterial spectrum, MIC; assay type: cell-based; conditions: Parabacteroides distasonis, 10^6 cells/ml, Gram -, standard strain
From the text: as §1, §2

S. pneumoniae IID 552 = test: Antibacterial spectrum, MIC; assay type: cell-based; conditions: Streptococcus pneumoniae, IID552; 10^6 cells/ml; Gram +; standard strain
From the text: as §1, §2

[21] = test system: Salmonella enteritidis IID 604; test: Antibacterial spectrum, MIC; assay type: cell-based; conditions: Salmonella enterica; 10^6 cells/ml; Gram -; standard strain
From the text: as §1, §2

[22] = test system: Acinetobacter anitratus IID 876; test: Antibacterial spectrum, MIC; assay type: cell-based; conditions: Acinetobacter calcoaceticus, IID876; 10^6 cells/ml; Gram -; standard strain
From the text: as §1, §2

[23] = test system: Bacteroides fragilis GM 7000; test: Antibacterial spectrum, MIC; conditions: GM7000
P. aeruginosa IFO 12689 = test: microbe, parasite or virus in culture; conditions: Pseudomonas aeruginosa, IFO12689
[24] = test system: Pseudomonas aeruginosa V-1; test: Antibacterial spectrum, MIC; conditions: V1
F. varium KYA 8501 = test: Antibacterial spectrum, MIC; assay type: cell-based; conditions: Fusobacterium varium, KYA8501
[25] = test system: Yersinia enterocolitica IID 981; test: microbe, parasite or virus in culture; assay type: cell-based; conditions: IID981
gram-negative bacteria = conditions: background art; CI-934 compared with Norfloxacin and Ciprofloxacin; cited from earlier work
gram-positive bacteria = conditions: background art; cited from earlier work

CC1CN(c2c(F)cc3c(=O)c(C(=O)O)cn(C4CC4)c3c2Br)CCN1.Cl (stereo not shown) [Exp. 18, 8-Bromo-1-cyclopropyl-6-fluoro-1,4-dihydro-7-(3-methyl-1-piperazinyl)-4-oxo-3-quinolinecarboxylic acid hydrochloride]
MIC [1]: 0.78 µg/mL | MIC [2]: 0.39 µg/mL | MIC [3]: 0.39 µg/mL | MIC (Pst. micros UPI 5464-1): 0.39 µg/mL | MIC ([4]; KYA27337, 10^6 cells/ml, Gram +, standard strain, read-out: MIC): 1.56 µg/mL | MIC (C. ramosum): 6.25 µg/mL | MIC [5]: 0.1 µg/mL | MIC (S. pyogenes IID 692): 0.78 µg/mL | MIC ([6]; 10^6 cells/ml, Gram +, standard strain, read-out: MIC): 6.25 µg/mL | MIC [7]: 1.56 µg/mL | MIC [8]: 0.39 µg/mL | MIC [9]: 0.05 µg/mL | MIC [10]: 0.78 µg/mL | MIC (P. mirabilis IID 994): 0.025 µg/mL | MIC [11]: 0.39 µg/mL | MIC [12]: 0.05 µg/mL | MIC (S. epidermidis IID 866): 0.2 µg/mL | MIC [13]: 0.0125 µg/mL | MIC [14]: 0.78 µg/mL | MIC (Shigella sonnei IID 969): 0.025 µg/mL | MIC (B. fragilis 0558): 0.39 µg/mL | MIC [15]: 0.05 µg/mL | MIC (E. coli ATCC l0536): 0.025 µg/mL | MIC [16]: 0.2 µg/mL | MIC [17]: 0.1 µg/mL | MIC [18]: 0.025 µg/mL | MIC (B. fragilis 25285): 0.39 µg/mL | MIC (K. pneumoniae 1-220S): 0.1 µg/mL | MIC (E. faecalis IID 682): 0.78 µg/mL | MIC [19]: 0.1 µg/mL | MIC [20]: 0.1 µg/mL | MIC (B. distasonis 8503): 1.56 µg/mL | MIC (S. pneumoniae IID 552): 0.78 µg/mL | MIC [21]: 0.05 µg/mL | MIC [22]: 0.05 µg/mL | MIC [23]: 0.78 µg/mL | MIC (P. aeruginosa IFO 12689): 3.13 µg/mL | MIC [24]: 0.39 µg/mL | MIC (F. varium KYA 8501): 3.13 µg/mL | MIC [25]: 0.1 µg/mL

CCn1cc(C(=O)O)c(=O)c2cc(F)c(N3CCNCC3)cc21 [Norfloxacin]
activity against gram-negative bacteria (gram-negative bacteria): effective | activity against gram-positive bacteria (gram-positive bacteria): effective

CC1COc2c(N3CCN(C)CC3)c(F)cc3c(=O)c(C(=O)O)cn1c23 (stereo not shown) [OFLX, ofloxacin, reference compound]
MIC [1]: 0.78 µg/mL (≈ 2.16 µM) | MIC [2]: 0.78 µg/mL (≈ 2.16 µM) | MIC [3]: 0.78 µg/mL (≈ 2.16 µM) | MIC (Pst. micros UPI 5464-1): 0.78 µg/mL (≈ 2.16 µM) | MIC ([4]; KYA27337): 3.13 µg/mL (≈ 8.66 µM) | MIC (C. ramosum): 12.5 µg/mL (≈ 34.6 µM) | MIC [5]: 0.1 µg/mL (≈ 0.277 µM) | MIC (S. pyogenes IID 692): 3.13 µg/mL (≈ 8.66 µM) | MIC [6]: 12.5 µg/mL (≈ 34.6 µM) | MIC [7]: 6.25 µg/mL (≈ 17.3 µM) | MIC [8]: 0.78 µg/mL (≈ 2.16 µM) | MIC [9]: 0.1 µg/mL (≈ 0.277 µM) | MIC [10]: 1.56 µg/mL (≈ 4.32 µM) | MIC (P. mirabilis IID 994): 0.05 µg/mL (≈ 0.138 µM) | MIC [11]: 0.78 µg/mL (≈ 2.16 µM) | MIC [12]: 0.1 µg/mL (≈ 0.277 µM) | MIC (S. epidermidis IID 866): 0.39 µg/mL (≈ 1.08 µM) | MIC [13]: ≤ 0.025 µg/mL | MIC [14]: 1.56 µg/mL (≈ 4.32 µM) | MIC (Shigella sonnei IID 969): 0.05 µg/mL (≈ 0.138 µM) | MIC (B. fragilis 0558): 1.56 µg/mL (≈ 4.32 µM) | MIC [15]: 0.05 µg/mL (≈ 0.138 µM) | MIC (E. coli ATCC l0536): 0.05 µg/mL (≈ 0.138 µM) | MIC [16]: 0.39 µg/mL (≈ 1.08 µM) | MIC [17]: 0.1 µg/mL (≈ 0.277 µM) | MIC [18]: 0.05 µg/mL (≈ 0.138 µM) | MIC (B. fragilis 25285): 1.56 µg/mL (≈ 4.32 µM) | MIC (K. pneumoniae 1-220S): 0.2 µg/mL (≈ 0.553 µM) | MIC (E. faecalis IID 682): 1.56 µg/mL (≈ 4.32 µM) | MIC [19]: 0.1 µg/mL (≈ 0.277 µM) | MIC [20]: 0.2 µg/mL (≈ 0.553 µM) | MIC (B. distasonis 8503): 6.25 µg/mL (≈ 17.3 µM) | MIC (S. pneumoniae IID 552): 1.56 µg/mL (≈ 4.32 µM) | MIC [21]: 0.1 µg/mL (≈ 0.277 µM) | MIC [22]: 0.2 µg/mL (≈ 0.553 µM) | MIC [23]: 3.13 µg/mL (≈ 8.66 µM) | MIC (P. aeruginosa IFO 12689): 3.13 µg/mL (≈ 8.66 µM) | MIC [24]: 0.39 µg/mL (≈ 1.08 µM) | MIC (F. varium KYA 8501; 10^6 cells/ml, Gram -, standard strain, read-out: MIC): 12.5 µg/mL (≈ 34.6 µM) | MIC [25]: 0.2 µg/mL (≈ 0.553 µM)
